Entries after “also recorded” stand apart in the source; their conditions may differ. Where a SMILES comes first, the peptide text is derived from it. Bridges are numbered along the chain shown (N, C = ends). The star is where a group is joined. Cy5(nonsulfonated) = CN1C(=CC=CC=CC2=[N+](CCCCCC(=O)*)c3ccccc3C2(C)C)C(C)(C)c2ccccc21

The assay deals with T1, ADAMTS1 (Homo sapiens, UniProt Q9UHI8).
T1 construct: His; purchased BioTeZ Berlin-Buch GmbH 30 400 402
T1 sequence (Q9UHI8 253-967): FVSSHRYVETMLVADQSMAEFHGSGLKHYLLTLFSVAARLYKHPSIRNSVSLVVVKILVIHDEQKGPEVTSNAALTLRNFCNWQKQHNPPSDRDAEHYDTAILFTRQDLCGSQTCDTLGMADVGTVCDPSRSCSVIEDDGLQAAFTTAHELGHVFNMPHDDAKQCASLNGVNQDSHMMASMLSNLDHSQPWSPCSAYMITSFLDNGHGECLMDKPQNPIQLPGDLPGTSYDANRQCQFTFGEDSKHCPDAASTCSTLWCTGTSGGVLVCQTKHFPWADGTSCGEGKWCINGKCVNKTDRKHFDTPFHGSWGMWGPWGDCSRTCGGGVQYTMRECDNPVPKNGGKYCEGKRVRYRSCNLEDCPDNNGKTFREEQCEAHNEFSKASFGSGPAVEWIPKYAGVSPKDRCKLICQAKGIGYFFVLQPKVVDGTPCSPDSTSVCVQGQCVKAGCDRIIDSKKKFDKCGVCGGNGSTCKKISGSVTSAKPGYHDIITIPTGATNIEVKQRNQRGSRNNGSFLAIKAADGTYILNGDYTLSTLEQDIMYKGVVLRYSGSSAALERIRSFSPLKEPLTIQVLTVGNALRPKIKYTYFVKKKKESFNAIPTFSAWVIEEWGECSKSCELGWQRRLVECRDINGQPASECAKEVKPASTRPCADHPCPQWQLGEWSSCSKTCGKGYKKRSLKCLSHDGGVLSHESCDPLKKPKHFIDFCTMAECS
Put plainly: MST instrument, ligand-dependent fluorescence change, Cy5-labeled peptide vs ADAMTS1. In kind it is binding. The note with it: Cy5-labeled peptide 3 nM, ADAMTS1 starting concentration 4.88 µM, n = 3. As to the method:
Microscale thermophoresis (MST) was performed on a Monolith Pico (NanoTemper, Munich, Germany). The Cy5-labeled peptides were diluted into the MST buffer (150 mM NaCl, 50 mM TRIS-HCl, 5 mM CaCl2, and Tween-20) to reach a dilution of 6 nM. ADAMTS4, ADAMTS5, and ADAMTS1 were directly used with the supplied concentration. For ADAMTS4, the starting concentration was 4.96 µM, while for ADAMTS1 it was 4.88 µM and for ADAMTS5 it was 2.46 µM. Since we saw a loss of binding after centrifugation, the use of protein concentrators were inappropriate. 20 µl of the protein solutions were transferred into a PCR tube. 10 µl of this first vial was transferred into a second vial and mixed by pipetting with 10 µl of the MST buffer. […] The capillaries were transferred into the Monolith tray and measured with 10% excitation power on the pico-red excitation on high MST power at 25 °C. […] We detected a ligand-dependent fluorescence change for some of the systems. We checked for ADAMTS4 and the ADAMTS4-specific-Cy5-labeled probe via a saturation test for specifying the ligand-dependent fluorescence change. […] The samples were heated at 95 °C for 5 min and measured in the MST. The fluorescence difference between the concentrations was afterward at the same level. Each measurement was repeated three times independently and the binding constant was calculated by merging all three measurements. […]

For `C[N+]1=C(C=CC=CC=C2N(CCCCCC(=O)NCCCC[C@H](NC(=O)CNC(=O)CNC(=O)[C@H](CO)NC(=O)CNC(=O)CNC(=O)[C@H](CO)NC(=O)[C@@H]3CSSC[C@H](N)C(=O)N[C@@H](CO)C(=O)N[C@@H](CCCNC(=N)N)C(=O)N[C@@H](CCCNC(=N)N)C(=O)NCC(=O)N3)C(=O)NCC(N)=O)c3ccccc3C2(C)C)C(C)(C)c2ccccc21` [Cy5-labeled probe] (H-CSRRGCSGGSGGK(Cy5(nonsulfonated))G-NH2; disulfide 1-6; N-terminus and C-terminus assumed), the “binding to ADAMTS1, in words” value is on record as “determination of the binding constant is not possible; also recorded: plateau was not reached; also recorded: a ligand dependent fluorescence change occurs”.
